Data as given in PMC3914206.

Tests used:
panel of 442 kinases [1] = target: T1, panel of 442 kinases (Homo sapiens, UniProt P10721, V559D); format: binding; conditions: Compound Concentration 10 µM
T1 construct: purchased KINOMEscan
From the text: (§1) We assessed the selectivity of members of this scaffold using the KINOMEscan methodology across a near comprehensive panel of 442 kinases [[18,27]].

panel of 442 kinases [2] = target: T2, panel of 442 kinases (Homo sapiens, UniProt O14730); format: binding; conditions: Compound Concentration 10 µM
T2 construct: purchased KINOMEscan
T2 sequence (O14730 1-519): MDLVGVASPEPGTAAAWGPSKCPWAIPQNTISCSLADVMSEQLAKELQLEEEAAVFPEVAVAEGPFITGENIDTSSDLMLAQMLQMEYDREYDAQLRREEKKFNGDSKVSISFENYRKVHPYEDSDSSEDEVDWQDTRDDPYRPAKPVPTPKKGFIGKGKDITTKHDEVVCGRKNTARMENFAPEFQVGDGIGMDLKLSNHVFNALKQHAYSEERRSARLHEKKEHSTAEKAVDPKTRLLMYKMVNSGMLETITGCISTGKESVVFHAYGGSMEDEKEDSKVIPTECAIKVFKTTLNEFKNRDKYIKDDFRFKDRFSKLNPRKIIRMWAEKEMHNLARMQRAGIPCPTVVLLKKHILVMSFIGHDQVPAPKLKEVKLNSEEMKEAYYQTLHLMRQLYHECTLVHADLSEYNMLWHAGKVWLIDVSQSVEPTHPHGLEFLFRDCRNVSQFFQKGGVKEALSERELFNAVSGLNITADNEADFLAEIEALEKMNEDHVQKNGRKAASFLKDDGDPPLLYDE
From the text: as §1

T1 sequence (P10721 26-976 V559D): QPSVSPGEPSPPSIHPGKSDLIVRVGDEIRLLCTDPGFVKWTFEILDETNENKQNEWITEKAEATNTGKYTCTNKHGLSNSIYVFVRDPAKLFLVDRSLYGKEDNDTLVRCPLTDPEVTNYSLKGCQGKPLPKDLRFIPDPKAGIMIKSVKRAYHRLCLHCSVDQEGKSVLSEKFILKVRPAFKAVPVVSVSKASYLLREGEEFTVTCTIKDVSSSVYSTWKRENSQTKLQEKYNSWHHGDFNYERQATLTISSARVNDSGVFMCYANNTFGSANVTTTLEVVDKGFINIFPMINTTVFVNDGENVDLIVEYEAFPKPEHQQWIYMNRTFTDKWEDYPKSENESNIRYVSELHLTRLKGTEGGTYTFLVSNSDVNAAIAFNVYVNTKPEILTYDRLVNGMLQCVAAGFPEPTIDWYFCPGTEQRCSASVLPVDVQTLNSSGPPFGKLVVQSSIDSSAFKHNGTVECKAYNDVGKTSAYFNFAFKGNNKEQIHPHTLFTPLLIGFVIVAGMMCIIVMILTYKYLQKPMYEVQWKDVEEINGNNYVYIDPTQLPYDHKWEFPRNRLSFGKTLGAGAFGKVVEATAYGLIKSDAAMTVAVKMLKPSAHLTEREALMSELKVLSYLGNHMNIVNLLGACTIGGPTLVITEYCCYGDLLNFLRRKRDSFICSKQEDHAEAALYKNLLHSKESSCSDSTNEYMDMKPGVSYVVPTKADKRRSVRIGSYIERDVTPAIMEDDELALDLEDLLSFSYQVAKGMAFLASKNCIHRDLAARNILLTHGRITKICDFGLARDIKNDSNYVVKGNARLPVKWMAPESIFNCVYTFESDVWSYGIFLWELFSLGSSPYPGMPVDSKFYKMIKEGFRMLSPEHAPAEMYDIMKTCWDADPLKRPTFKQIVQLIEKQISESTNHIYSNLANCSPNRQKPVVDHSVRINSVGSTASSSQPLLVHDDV

Row | SMILES | KINOMEscan: KIT(V559D) (panel of 442 kinases [1]) | KINOMEscan: RIOK3 (panel of 442 kinases [2])
1 | COc1cc(C(=O)N2CCC(N3CCN(C)CC3)CC2)ccc1Nc1ncc2c(n1)N(C)c1ccccc1C(=O)N2C [15 (LRRK2-IN-1)] | 100 | 85
2 | COc1cc(C(=O)N2CCC(N3CCN(C)CC3)CC2)ccc1Nc1ncc2c(n1)N1CCc3cccc(c31)C(=O)N2C [Compound 24] | – | 74
3 | COc1cc(C(=O)N2CCC(N3CCN(C)CC3)CC2)ccc1Nc1ncc2c(n1)N(C1CCCC1)c1ccccc1C(=O)N2C [Compound 25, 11-cyclopentyl-2-((2-methoxy-4-(4-(4-methylpiperazin-1-yl)piperidine-1-carbonyl)phenyl)amino)-5-methyl-5H-benzo[e]pyrimido[5,4-b][1,4]diazepin-6(11H)-one] | 96 | 84
4 | CCOc1cc(C(=O)N2CCC(N3CCN(C)CC3)CC2)ccc1Nc1ncc2c(n1)N(C1CCCC1)c1ccccc1C(=O)N2C [Compound 26] | 100 | 89
